This passage reports IC50 results from patent US20020015967A1, “FUNCTIONAL EXPRESSION OF ADENOSINE RECEPTORS IN YEAST” (priority 1998, published 2002).

The target of the experiment is T1, human A3 receptor (Homo sapiens, UniProt P0DMS8).
T1 construct: expressed in transfected cells
T1 sequence (P0DMS8 1-318): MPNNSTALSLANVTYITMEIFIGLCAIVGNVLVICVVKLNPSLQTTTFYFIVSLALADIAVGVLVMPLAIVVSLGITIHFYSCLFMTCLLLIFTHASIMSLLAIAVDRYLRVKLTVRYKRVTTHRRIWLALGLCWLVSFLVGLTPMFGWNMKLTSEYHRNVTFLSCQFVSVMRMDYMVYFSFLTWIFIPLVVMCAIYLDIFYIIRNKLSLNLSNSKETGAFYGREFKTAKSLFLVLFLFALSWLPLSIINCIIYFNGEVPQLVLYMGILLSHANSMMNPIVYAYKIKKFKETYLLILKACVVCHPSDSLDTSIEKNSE
Nature of the experiment: Radioligand displacement binding, [125I]AB-MECA, mammalian membranes. To be noted: [125I]AB-MECA 0.75 nM; 10 ug mammalian membranes; 60 minutes room temperature; read-out: IC50 hA3R. In general terms: Loss of bound radioactivity is the signal in a displacement assay; it reports binding, not function.

Structures are written as SMILES. pIC50: −log10 of the molar value.

Turning to `O=c1[nH]c(=O)c2nc3ccccc3nc2[nH]1` [Alloxozine], the pIC50 was 5.09.

A word on the pIC50: it is the IC50 on a negative log10 scale, so that one unit is a factor of ten.
